According to ChEMBL document CHEMBL1137006, “Optimization of the central linker of dicationic bis-benzimidazole anti-MRSA and anti-VRE agents” (2009):
Values after ≈ are worked out from the molar mass of the structure shown.

What was measured:
Assay type in all cases: functional
Staphylococcus aureus [1] = assay: Antibacterial activity against Staphylococcus aureus ATCC 29213 by NCCLS method
Staphylococcus aureus [2] = assay: Antibacterial activity against multi-drug resistant Staphylococcus aureus BAA-39 by NCCLS method
Staphylococcus aureus [3] = assay: Antibacterial activity against methicillin-resistan Staphylococcus aureus ATCC 33591 by NCCLS method
[4] = tested on: Staphylococcus epidermidis; assay: Antibacterial activity against Staphylococcus epidermidis ATCC 12228 by NCCLS method
[5] = tested on: Staphylococcus epidermidis; assay: Antibacterial activity against methicillin-resistan Staphylococcus epidermidis ATCC 51625 by NCCLS method
Streptococcus pneumoniae = assay: Antibacterial activity against Streptococcus pneumoniae ATCC 6301 by NCCLS method
Enterococcus faecalis = assay: Antibacterial activity against vancomycin-resistant Enterococcus faecalis ATCC 51575 by NCCLS method
Enterococcus faecium = assay: Antibacterial activity against vancomycin-resistant Enterococcus faecium ATCC 700221 by NCCLS method
Bacillus subtilis = assay: Antibacterial activity against Bacillus subtilis ATCC 23857 by NCCLS method
Bacillus cereus = assay: Antibacterial activity against Bacillus cereus ATCC 11778 by NCCLS method
Bacteroides fragilis = assay: Antibacterial activity against Bacteroides fragilis ATCC 23745 by NCCLS method
Clostridium perfringens = assay: Antibacterial activity against Clostridium perfringens ATCC 10388 by NCCLS method

Row | SMILES | MIC (Staphylococcus aureus [1]) | MIC (Staphylococcus aureus [2]) | MIC (Staphylococcus aureus [3]) | MIC [4] | MIC [5] | MIC (Streptococcus pneumoniae) | MIC (Enterococcus faecalis) | MIC (Enterococcus faecium) | MIC (Bacillus subtilis) | MIC (Bacillus cereus) | MIC (Bacteroides fragilis) | MIC (Clostridium perfringens)
1 | CC(C)NC(=N)c1ccc2[nH]c(-c3ccc(COc4ccc(-c5nc6cc(C(=N)NC(C)C)ccc6[nH]5)cc4)cc3)nc2c1 | 1 µg/mL (≈ 1.71 µM) | 4 µg/mL (≈ 6.84 µM) | 0.5 µg/mL (≈ 0.855 µM) | ≤ 0.06 µg/mL | 0.25 µg/mL (≈ 0.428 µM) | ≤ 0.06 µg/mL | 1 µg/mL (≈ 1.71 µM) | 0.12 µg/mL (≈ 0.205 µM) | 0.12 µg/mL (≈ 0.205 µM) | 0.12 µg/mL (≈ 0.205 µM) | 32 µg/mL (≈ 54.7 µM) | 16 µg/mL (≈ 27.4 µM)
2 | CC(C)NC(=N)c1ccc2[nH]c(-c3ccc(Sc4ccc(-c5nc6cc(C(=N)NC(C)C)ccc6[nH]5)cc4)cc3)nc2c1 | > 32 µg/mL | 32 µg/mL (≈ 54.5 µM) | 16 µg/mL (≈ 27.3 µM) | 8 µg/mL (≈ 13.6 µM) | 16 µg/mL (≈ 27.3 µM) | > 32 µg/mL | > 32 µg/mL | 16 µg/mL (≈ 27.3 µM) | 16 µg/mL (≈ 27.3 µM) | 8 µg/mL (≈ 13.6 µM) | > 32 µg/mL | > 32 µg/mL
3 | CC(C)NC(=N)c1ccc2[nH]c(-c3ccc(C#Cc4ccc(-c5nc6cc(C(=N)NC(C)C)ccc6[nH]5)cc4)cc3)nc2c1 | 2 µg/mL (≈ 3.46 µM) | 4 µg/mL (≈ 6.91 µM) | 2 µg/mL (≈ 3.46 µM) | 0.12 µg/mL (≈ 0.207 µM) | 0.25 µg/mL (≈ 0.432 µM) |  | 32 µg/mL (≈ 55.3 µM) | 0.5 µg/mL (≈ 0.864 µM) | 4 µg/mL (≈ 6.91 µM) | 0.5 µg/mL (≈ 0.864 µM) | > 32 µg/mL | 4 µg/mL (≈ 6.91 µM)
4 | CC(C)NC(=N)c1ccc2[nH]c(-c3ccc(Nc4ccc(-c5nc6cc(C(=N)NC(C)C)ccc6[nH]5)cc4)cc3)nc2c1 | 0.25 µg/mL (≈ 0.439 µM) | 0.25 µg/mL (≈ 0.439 µM) | 0.25 µg/mL (≈ 0.439 µM) | 0.12 µg/mL (≈ 0.211 µM) | 0.25 µg/mL (≈ 0.439 µM) | 0.12 µg/mL (≈ 0.211 µM) | 0.25 µg/mL (≈ 0.439 µM) | 0.12 µg/mL (≈ 0.211 µM) | 0.12 µg/mL (≈ 0.211 µM) | 0.12 µg/mL (≈ 0.211 µM) | > 32 µg/mL | 2 µg/mL (≈ 3.51 µM)
5 | CC(C)NC(=N)c1ccc2[nH]c(-c3ccc(N(C)c4ccc(-c5nc6cc(C(=N)NC(C)C)ccc6[nH]5)cc4)cc3)nc2c1 | 1 µg/mL (≈ 1.71 µM) | 0.5 µg/mL (≈ 0.857 µM) | 0.5 µg/mL (≈ 0.857 µM) | 0.12 µg/mL (≈ 0.206 µM) | 0.12 µg/mL (≈ 0.206 µM) | 0.12 µg/mL (≈ 0.206 µM) | 0.25 µg/mL (≈ 0.428 µM) | ≤ 0.06 µg/mL | 0.12 µg/mL (≈ 0.206 µM) | 0.25 µg/mL (≈ 0.428 µM) | > 32 µg/mL | 1 µg/mL (≈ 1.71 µM)
6 | O=C(O)c1cn(C2CC2)c2cc(N3CCNCC3)c(F)cc2c1=O [CIPROFLOXACIN] | 0.5 µg/mL (≈ 1.51 µM) | 8 µg/mL (≈ 24.1 µM) | ≤ 0.12 µg/mL | ≤ 0.12 µg/mL | ≤ 0.12 µg/mL |  | 0.5 µg/mL (≈ 1.51 µM) | > 32 µg/mL | ≤ 0.12 µg/mL | ≤ 0.12 µg/mL | 0.5 µg/mL (≈ 1.51 µM) | 
7 | CC(C)NC(=N)c1ccc2[nH]c(-c3ccc([C@@H]4C[C@H]4c4ccc(-c5nc6cc(C(=N)NC(C)C)ccc6[nH]5)cc4)cc3)nc2c1 | 1 µg/mL (≈ 1.68 µM) | 0.5 µg/mL (≈ 0.841 µM) | 0.25 µg/mL (≈ 0.42 µM) | ≤ 0.06 µg/mL | 0.12 µg/mL (≈ 0.202 µM) | ≤ 0.06 µg/mL | 0.5 µg/mL (≈ 0.841 µM) | 0.12 µg/mL (≈ 0.202 µM) | 0.12 µg/mL (≈ 0.202 µM) | 0.12 µg/mL (≈ 0.202 µM) | 0.5 µg/mL (≈ 0.841 µM) | 0.25 µg/mL (≈ 0.42 µM)
8 | CC(C)NC(=N)c1ccc2[nH]c(-c3ccc4c(c3)Cc3ccc(-c5nc6cc(C(=N)NC(C)C)ccc6[nH]5)cc3S4)nc2c1 | 16 µg/mL (≈ 26.7 µM) | 8 µg/mL (≈ 13.4 µM) | 2 µg/mL (≈ 3.34 µM) | 2 µg/mL (≈ 3.34 µM) | 0.5 µg/mL (≈ 0.835 µM) | 0.12 µg/mL (≈ 0.2 µM) | 16 µg/mL (≈ 26.7 µM) | 0.5 µg/mL (≈ 0.835 µM) | 1 µg/mL (≈ 1.67 µM) | 1 µg/mL (≈ 1.67 µM) | > 32 µg/mL | 0.5 µg/mL (≈ 0.835 µM)
9 | CC(C)NC(=N)c1ccc2[nH]c(-c3ccc(Oc4ccc(-c5nc6cc(C(=N)NC(C)C)ccc6[nH]5)cc4)cc3)nc2c1 | 0.25 µg/mL (≈ 0.438 µM) | 0.5 µg/mL (≈ 0.876 µM) | 0.12 µg/mL (≈ 0.21 µM) | < 0.06 µg/mL | < 0.06 µg/mL | < 0.06 µg/mL | 0.12 µg/mL (≈ 0.21 µM) | < 0.06 µg/mL | < 0.06 µg/mL | < 0.06 µg/mL | 2 µg/mL (≈ 3.5 µM) | 0.5 µg/mL (≈ 0.876 µM)
